US7772241B2, “Variolin derivatives and their use as antitumor agents” (Pharma Mar S.A., priority 2001, dated 2010)
Like-named read-outs stand apart in the source and are kept apart here. Each block holds one molecule with its values, some of them ahead of it.

Assays:
A-549 = assay: Inhibition of cells growth by colorimetric (SRB) assay, A-549
Summary of the method: (§1)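 Human tumour cells seeded at 5×10^3/well in RPMI 1640 10% FBS, attached 18 h, then exposed 48 h to samples at 10 to 10^−8 μg/ml in DMSO/EtOH/PBS (0.5:0.5:99). Growth read by SRB staining after TCA fixation, OD 490 nm, triplicate wells; GI, TGI and LC derived.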

HT-29 = assay: Inhibition of cells growth by colorimetric (SRB) assay, HT-29
Summary of the method: as §1

[1] = Inhibition of cells growth by colorimetric (SRB) assay, HMEC1; settings: human, HMEC1 cells, H-MEC-1 LC50, SRB assay, 48 hours exposure
Text: (§2) The finality of these assays is to interrupt the growth of a “in vitro” tumor cell culture by means a continued exhibition of the cells to the sample to be testing.
(§3) This form of the assay employs 96 well cell culture microplates of 9 mm diameter (Faircloth, 1988; Mosmann, 1983). Most of the cell lines are obtained from American Type Culture Collection (ATCC) derived from different human cancer types.
(§4) Cells are maintained in RPMI 1640 10% FBS, supplemented with 0.1 g/l penicillin and 0.1 g/l streptomycin sulphate and then incubated at 37° C., 5% CO2 and 98% humidity. For the experiments, cells were harvested from subconfluent cultures using trypsin and resuspended in fresh medium before plating.
(§5) Cells are seeded in 96 well microtiter plates, at 5×10^3 cells per well in aliquots of 195 μl medium, and they are allowed to attach to the plate surface by growing in drug free medium for 18 hours. Afterward, samples are added in aliquots of 5 μl in a ranging from 10 to 10^−8 μg/ml, dissolved in DMSO/EtOH/PBS (0.5:0.5:99). After 48 hours exposure, the antitumor effect are measured by the SRB methodology: cells are fixed by adding 50 μl of cold 50% (wt/vol) trichloroacetic acid (TCA) and incubating for 60 minutes at 4° C. Plates are washed with deionized water and dried. One hundred μl of SRB solution (0.4% wt/vol in 1% acetic acid) is added to each microtiter well and incubated for 10 minutes at room temperature. Unbound SRB is removed by washing with 1% acetic acid. Plates are air dried and bound stain is solubilized with Tris buffer. Optical densities are read on a automated spectrophotometric plate reader at a single wavelength of 490 nm.
(§6) The values for mean +/−SD of data from triplicate wells are calculated. Some parameters for cellular responses can be calculated: GI=growth inhibition, TGI=total growth inhibition (cytostatic effect) and LC=cell killing (cytotoxic effect).

HMEC1 = assay: as above; settings: for CC50: read-out: LC50 H-MEC-1
Text: as §2, §3, §4, §5, §6

K-562 = assay: Inhibition of cells growth by colorimetric (SRB) assay, K-562; settings: SRB assay, 48 hours exposure; for GI50: read-out: GI50 K-562; for CC50: read-out: LC50 K-562
Summary of the method: as §1

SK-MEL-28 = assay: Inhibition of cells growth by colorimetric (SRB) assay, SK-MEL-28; settings: SRB assay, 48 hours exposure; for GI50: read-out: GI50 MEL-28; for CC50: read-out: LC50 MEL-28
Summary of the method: as §1

LoVo = assay: Inhibition of cells growth by colorimetric (SRB) assay, LoVo; settings: SRB assay, 48 hours exposure; for GI50: read-out: GI50 LOVO; for CC50: read-out: LC50 LOVO
Summary of the method: as §1

LoVo-Dox = assay: Inhibition of cells growth by colorimetric (SRB) assay, LoVo-Dox; settings: SRB assay, 48 hours exposure; for GI50: read-out: GI50 LOVO-DOX; for CC50: read-out: LC50 LOVO-DOX
Summary of the method: as §1

DU-145 = assay: Inhibition of cells growth by colorimetric (SRB) assay, DU-145; settings: SRB assay, 48 hours exposure; for GI50: read-out: GI50 DU-145; for CC50: read-out: LC50 DU-145
Summary of the method: as §1

LNCaP = assay: Inhibition of cells growth by colorimetric (SRB) assay, LNCaP; settings: for CC50: read-out: LC50 LN-caP, SRB assay, 48 hours exposure
Summary of the method: as §1

SK-BR-3 = assay: Inhibition of cells growth by colorimetric (SRB) assay, SK-BR-3; settings: SRB assay, 48 hours exposure; for GI50: read-out: GI50 SK-BR-3; for CC50: read-out: LC50 SK-BR-3
Summary of the method: as §1

IGROV-1 = assay: Inhibition of cells growth by colorimetric (SRB) assay, IGROV-1; settings: SRB assay, 48 hours exposure; for GI50: read-out: GI50 IGROV; for CC50: read-out: LC50 IGROV
Summary of the method: as §1

IGROV-ET = assay: Inhibition of cells growth by colorimetric (SRB) assay, IGROV-ET; settings: SRB assay, 48 hours exposure; for GI50: read-out: GI50 IGROV-ET; for CC50: read-out: LC50 IGROV-ET
Summary of the method: as §1

SK-OV-3 = assay: Inhibition of cells growth by colorimetric (SRB) assay, SK-OV-3; settings: for GI50: Homo sapiens, SK-OV-3, 48 h, read-out: GI50 SKOV-3, SRB assay, 48 hours exposure; for TGI SKOV-3 / CC50: SRB assay, 48 hours exposure; for CC50: read-out: LC50 SKOV-3
Summary of the method: as §1

PANC-1 = assay: Inhibition of cells growth by colorimetric (SRB) assay, PANC-1; settings: SRB assay, 48 hours exposure; for GI50: read-out: GI50 PANC-1
Summary of the method: as §1

[2] = SRB assay, 48 hours exposure, in M (unit assumed)
[3] = read-out: GI50 A-549, SRB assay, 48 hours exposure
[4] = read-out: LC50 A-549, SRB assay, 48 hours exposure
[5] = read-out: GI50 HT-29, SRB assay, 48 hours exposure
[6] = read-out: LC50 HT-29, SRB assay, 48 hours exposure
[7] = read-out: GI50 H-MEC-1, SRB assay, 48 hours exposure

GI50 (A-549; Homo sapiens, A549, 48 h, read-out: A-549 GI50, SRB assay, 48 hours exposure): 29700 nM | GI50 (HT-29; Homo sapiens, HT-29, 48 h, read-out: HT-29 GI50, SRB assay, 48 hours exposure): 29700 nM
Structure (SMILES): CSc1nccc2c(-c3cccc([N+](=O)[O-])c3)c3cccnc3n12 [Compound 59]
CC50 (A-549; Homo sapiens, A549, 48 h, read-out: A-549 LC50, SRB assay, 48 hours exposure): 29700 nM | A-549 TGI (A-549; SRB assay, 48 hours exposure): 2.97E−05 | CC50 (HT-29; Homo sapiens, HT-29, 48 h, read-out: HT-29 LC50, SRB assay, 48 hours exposure): 29700 nM | HT-29 TGI (HT-29; SRB assay, 48 hours exposure): 2.97E−05 | CC50 at 48 h [1]: 29700 nM | GI50 (HMEC1; Homo sapiens, HMEC-1, 48 h, read-out: H-MEC-1 GI50, SRB assay, 48 hours exposure): 29700 nM | H-MEC-1 TGI (HMEC1; [2]): 2.97E−05

Structure (SMILES): CCOc1nccc(-c2c3cccnc3n3c(N)nccc23)n1 [Compound 77]
TGI K-562 (K-562): 3.26E−05 | GI50 (K-562): 1210 nM | CC50 (K-562): ≥ 32600 nM | TGI A-549 (A-549; SRB assay, 48 hours exposure): 3.26E−05 | GI50 (A-549; [3]): ≥ 32600 nM | CC50 (A-549; [4]): > 32600 nM | TGI MEL-28 (SK-MEL-28): 9.24E−07 | GI50 (SK-MEL-28): 398 nM | CC50 (SK-MEL-28): 2160 nM | TGI HT-29 (HT-29; SRB assay, 48 hours exposure): 3.26E−06 | GI50 (HT-29; [5]): 829 nM | CC50 (HT-29; [6]): 3260 nM | TGI LOVO (LoVo): 2.02E−06 | GI50 (LoVo): 629 nM | CC50 (LoVo): ≥ 32600 nM | TGI LOVO-DOX (LoVo-Dox): 2.79E−06 | GI50 (LoVo-Dox): 702 nM | CC50 (LoVo-Dox): 15100 nM | TGI DU-145 (DU-145): 1.68E−06 | GI50 (DU-145): 630 nM | CC50 (DU-145): 27800 nM | GI50 (LNCaP; Homo sapiens, LNCaP, 48 h, read-out: GI50 LN-caP, SRB assay, 48 hours exposure): 617 nM | CC50 (LNCaP; Homo sapiens, LNCaP, 48 h): 2960 nM | TGI LN-caP (LNCaP; SRB assay, 48 hours exposure): 1.35E−06 | TGI SK-BR-3 (SK-BR-3): 1.34E−06 | GI50 (SK-BR-3): 643 nM | CC50 (SK-BR-3): 2790 nM | TGI IGROV (IGROV-1): 2.74E−06 | GI50 (IGROV-1): 1300 nM | CC50 (IGROV-1): ≥ 32600 nM | TGI IGROV-ET (IGROV-ET): 1.61E−06 | GI50 (IGROV-ET): 555 nM | CC50 (IGROV-ET): ≥ 32600 nM | GI50 (SK-OV-3): 1300 nM | TGI SKOV-3 (SK-OV-3): 3.26E−06 | CC50 (SK-OV-3): 3260 nM | TGI PANC-1 (PANC-1): 7.80E−06 | GI50 (PANC-1): 1160 nM | CC50 (PANC-1; read-out: LC50 PANC-1): ≥ 32600 nM | TGI H-MEC-1 (HMEC1; [2]): 3.21E−07 | GI50 (HMEC1; [7]): 206 nM | CC50 (HMEC1; SRB assay, 48 hours exposure): 1260 nM

Structure (SMILES): COc1nccc(-c2c3cccnc3n3c(N)nccc23)n1 [Compound 76]
TGI K-562 (K-562): 2.28E−06 | GI50 (K-562): 1020 nM | CC50 (K-562): 5920 nM | TGI A-549 (A-549; SRB assay, 48 hours exposure): 1.49E−06 | GI50 (A-549; [3]): 407 nM | CC50 (A-549; [4]): 7700 nM | TGI MEL-28 (SK-MEL-28): 8.01E−07 | GI50 (SK-MEL-28): 359 nM | CC50 (SK-MEL-28): 1790 nM | TGI HT-29 (HT-29; SRB assay, 48 hours exposure): 3.42E−06 | GI50 (HT-29; [5]): 770 nM | CC50 (HT-29; [6]): ≥ 34200 nM | TGI LOVO (LoVo): 6.81E−07 | GI50 (LoVo): 163 nM | CC50 (LoVo): ≥ 34200 nM | TGI LOVO-DOX (LoVo-Dox): 3.42E−07 | GI50 (LoVo-Dox): 773 nM | CC50 (LoVo-Dox): ≥ 34200 nM | TGI DU-145 (DU-145): 1.42E−06 | GI50 (DU-145): 542 nM | CC50 (DU-145): 3420 nM | CC50 (LNCaP; Homo sapiens, LNCaP, 48 h): 3080 nM | TGI LN-caP (LNCaP; SRB assay, 48 hours exposure): 4.55E−07 | GI50 (LNCaP; read-out: GI50 LN-caP, SRB assay, 48 hours exposure): 72.9 nM | TGI SK-BR-3 (SK-BR-3): 1.21E−06 | GI50 (SK-BR-3): 541 nM | CC50 (SK-BR-3): 2710 nM | TGI IGROV (IGROV-1): 1.77E−06 | GI50 (IGROV-1): 725 nM | CC50 (IGROV-1): 3420 nM | TGI IGROV-ET (IGROV-ET): 2.04E−06 | GI50 (IGROV-ET): 649 nM | CC50 (IGROV-ET): ≥ 34200 nM | GI50 (SK-OV-3): 1220 nM | TGI SKOV-3 (SK-OV-3): 3.42E−06 | CC50 (SK-OV-3): 34300 nM | TGI PANC-1 (PANC-1): 2.15E−06 | GI50 (PANC-1): 650 nM | TGI H-MEC-1 (HMEC1; [2]): 2.27E−07 | GI50 (HMEC1; [7]): 77.7 nM | CC50 (HMEC1; SRB assay, 48 hours exposure): 1560 nM
